Drawing on patent US9227971B2, “Pyrazolo[1,5-a]pyrimidine compounds as mTOR inhibitors” (Merck Sharp & Dohme Corp., priority 2010, dated 2016), this text covers IC50 for nine compounds.

Structures are written as SMILES. Where two headings read alike, the source gives them in different places.

In assay [1] the test system is phosphorylated AKT Ser473 (pAKT S473), mTORC2 activity, PC3 cells. Kind of assay: mTOR target engagement assay, immunofluorescent cell-based, pAKT S473 readout (mTORC2 activity). Conditions: Homo sapiens. The method in brief:
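After blocking, cells were stained overnight at 4 °C with anti-pAKT S473 antibody, then a fluorescent secondary; inhibition was read as reduced fluorescence intensity.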

Assay [2] relates to phosphorylated 4E-BP1 Thr37/46 (p4E-BP1 Thr37/46), mTORC1 activity, PC3 cells. Kind of assay: mTOR target engagement assay, immunofluorescent cell-based, p4E-BP1 Thr37/46 readout (mTORC1 activity). Conditions: Homo sapiens, read-out: p4E-BP1 Thr37/46 IC50. The method in brief: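 PTEN-mutant PC3 prostate cells were treated with serially diluted compound in 5% FBS F12 medium (0.25% DMSO) for ninety minutes at 37° C, glyoxal-fixed, then immunostained overnight at 4° C for p4E-BP1 Thr37/46 with an Alexa Fluor 488 secondary. IC50 came from four-parameter fits of fluorescence, DMSO-only wells defining 100%.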

The mark [3] stands for this setting: PC-3, PC3 cells, compound treatment ninety minutes at 37° C.

In the case of `CS(=O)(=O)c1c([C@H]2CC3CC[C@H](C2)N3C(=O)NO)nc2c(-c3ccc(-c4ccccc4)nc3)cnn2c1N` [Compound 3.172, (1R,3s,5S)-3-(7-amino-6-(methylsulfonyl)-3-(6-phenylpyridin-3-yl)pyrazolo[1,5-a]pyrimidin-5-yl)-N-hydroxy-8-azabicyclo[3.2.1]octane-8-carboxamide], the IC50 in assay [1] (PC-3, Table 3-1, PC3 cells) lay in the range of 100 to 1000 nM; in assay [2] (PC-3, Table 3-1, PC3 cells) it was 1 to 100 nM.
As for `CC1(O)CCCc2cc(-c3cnn4c(N)c(C5CC5)c([C@H]5CC6CC[C@H](C5)N6C(=O)c5nnc[nH]5)nc34)cnc21` (stereo partly drawn) [Compound 7.55, ((1R,3s,5S)-3-(7-amino-6-cyclopropyl-3-(8-hydroxy-8-methyl-5,6,7,8-tetrahydroquinolin-3-yl)pyrazolo[1,5-a]pyrimidin-5-yl)-8-azabicyclo[3.2.1]octan-8-yl)(4H-1,2,4-triazol-3-yl)methanone], the IC50 in assay [1] (PC-3, PC3 cells) lay within 100 to 1000 nM; in assay [2] (PC-3, PC3 cells), 100 to 1000 nM.
For the compound `CC(=O)c1c([C@H]2C[C@H]3CC[C@@H](C2)N3C(=O)CO)nc2c(-c3ccc(-c4ccccc4)nc3)cnn2c1N` [Compound 1.1.9, 1-((1R,3r,5S)-3-(6-acetyl-7-amino-3-(6-phenylpyridin-3-yl)pyrazolo[1,5-a]pyrimidin-5-yl)-8-azabicyclo[3.2.1]octan-8-yl)-2-hydroxyethanone], the IC50 in assay [1] (setting [3]) and in assay [2] (setting [3]) was 100 to 1000 nM throughout.
For `CC(=O)c1c([C@@H]2C[C@H]3CC[C@@H](C2)N3C(=O)c2nnc(N)[nH]2)nc2c(-c3ccc(C(C)(C)O)nc3)cnn2c1N` [Compound 7.13, 1-(7-amino-5-((1R,3s,5S)-8-(5-amino-4H-1,2,4-triazole-3-carbonyl)-8-azabicyclo[3.2.1]octan-3-yl)-3-(6-(2-hydroxypropan-2-yl)pyridin-3-yl)pyrazolo[1,5-a]pyrimidin-6-yl)ethanone], the IC50 in assay [1] (setting [3]) and in assay [2] (setting [3]) was 100 to 1000 nM each time.
In the case of `CS(=O)(=O)c1c([C@@H]2C[C@H]3CC[C@@H](C2)N3C(=O)[C@H]2CCCN2)nc2c(-c3ccc(-c4ccccc4)nc3)cnn2c1N` [Compound 3.205], the IC50 in assay [1] (PC-3, Table 3-1, PC3 cells) was in the range of 100 to 1000 nM; in assay [2] (PC-3, Table 3-1, PC3 cells), 100 to 1000 nM.
As to `COc1ccc(-c2ccc(-c3cnn4c(N)c(S(C)(=O)=O)c([C@@H]5C[C@H]6CC[C@@H](C5)N6C(=O)c5nnc[nH]5)nc34)cn2)s1` [Compound 3.35, ((1R,3s,5S)-3-(7-amino-3-(6-(5-methoxythiophen-2-yl)pyridin-3-yl)-6-(methylsulfonyl)pyrazolo[1,5-a]pyrimidin-5-yl)-8-azabicyclo[3.2.1]octan-8-yl)(4H-1,2,4-triazol-3-yl)methanone], the IC50 was in the range of 1 to 100 nM in assay [1] (PC-3, Table 3-1, PC3 cells) and 1 to 100 nM in assay [2] (PC-3, Table 3-1, PC3 cells).
Consider `CS(=O)(=O)c1c([C@@H]2C[C@H]3CC[C@@H](C2)N3C(=O)c2cc3cnccc3[nH]2)nc2c(-c3ccc(-c4ccccc4)nc3)cnn2c1N` [Compound 3.76, ((1R,3s,5S)-3-(7-amino-6-(methylsulfonyl)-3-(6-phenylpyridin-3-yl)pyrazolo[1,5-a]pyrimidin-5-yl)-8-azabicyclo[3.2.1]octan-8-yl)(1H-pyrrolo[3,2-c]pyridin-2-yl)methanone], for which the IC50 in assay [1] (PC-3, Table 3-1, PC3 cells) was in the range of 1 to 100 nM; in assay [2] (PC-3, Table 3-1, PC3 cells), 1 to 100 nM.
Consider `C[C@H](O)C(=O)N1[C@@H]2CC[C@H]1C[C@H](c1nc3c(-c4ccc(-c5ccccc5)nc4)cnn3c(N)c1S(C)(=O)=O)C2` [Compound 3.27], for which the IC50 was 100 to 1000 nM in assay [1] (PC-3, Table 3-1, PC3 cells) and 100 to 1000 nM in assay [2] (PC-3, Table 3-1, PC3 cells).
For the compound `Cc1[nH]nc(-c2ccc(-c3cnn4c(N)c(C5CC5)c([C@@H]5C[C@H]6CC[C@@H](C5)N6C(=O)c5nnc[nH]5)nc34)cn2)c1F` [Compound 4.19, ((1R,3s,5S)-3-(7-amino-6-cyclopropyl-3-(6-(4-fluoro-5-methyl-1H-pyrazol-3-yl)pyridin-3-yl)pyrazolo[1,5-a]pyrimidin-5-yl)-8-azabicyclo[3.2.1]octan-8-yl)(4H-1,2,4-triazol-3-yl)methanone], the IC50 in assay [1] (setting [3]) and in assay [2] (setting [3]) was 100 to 1000 nM each time.
